Molecules are shown by their SMILES. Several values for one entry are separate records, joined by “and”; a condition that tells them apart may be missing. Equal entries are not always repeated. Entries after “also recorded” stand apart in the source; their conditions may differ.

We go through one molecule from patent publication US9345793B2, “Compounds for binding to the platelet specific glycoprotein IIB/IIIA and their use for imaging of thrombi” (PIRAMAL IMAGING SA, priority 2011, dated 2016).

One data set deals with human thrombi. The experiment in a line: Ex vivo blood flow model: binding to human thrombi, incl. competition with cold compound. To be noted: ± SEM. The source says:
The binding of compounds to thrombi was further investigated in an ex vivo blood flow model similar to that described in “Wakhloo, A. K. et al. Thrombus and stroke 2008, in vitro models 57-66” but modified with regard to thrombus development. Briefly, an open handmade tube-set consisting of tygon-tubes (Tygon R-1000, part N^O AAU00007: I.D. 3.2 mm, O.D. 6.4 mm, Saint Gobain Performance Plastics North America), intermediate tubes (Intrafix® Infusion set, B. Braun, Melsungen, Germany) an open reservoir (10 mL Combitip, Eppendorf) and a chamber made of a piece of polyethylene-Tube, ([…] Polyethylene Tubing, Clay Adams, PE160, length: 6.5 cm) containing a loop of a roughened thread (fishing line: Okuma UltraMax whitefish, diameter: 0.14 mm, length: 5 cm; sandpaper: CAMI Grit designation: 600, CP918a, VSM) was used for thrombus formation. The connection between the intermediate tube and the thrombus chamber was made by trimmed tips (epTIPS, 200 μL, Eppendorff, Hamburg/Germany). The Reservoir and the thrombus chamber were fixed by clamps and stands. A peristaltic-pump (Minipuls 3, Gilson, Middelton/USA) was used to pump the blood around thereby adjusting the flow in the middle of the thrombus chamber to 70-90 cm per second, which was monitored by ultrasound Doppler measurement (Vevo 770 High-Resolution In Vivo Micro-Imaging System, VisualSonics, TorontoOntario, Canada; Scanhead: RMV 704, 40 MHz). The volume of the entire tube-set was 7.5 or 15 mL.
For each experiment fresh blood was taken from a volunteer using 10 mL citrate-tubes (Sarstedt S-Monovette 02.1067.001, 10 mL, Citrate 3.13%) and immediately laid into the turning-device of an incubator at a temperature of 37° C. (Heraeus miniTherm CTT with integrated rotation- and turning device, turning speed: 19 rotations per minute, Heraeus Instruments GmbH, Hanau/Germany). As needed, two tubes were taken out of the turning-device and 15 mL were transferred to a 20 mL Syringe (Omnifix®, B. Braun, Melsungen/Germany) and gently mixed with 0.75 mL CaCl2-Solution before the peristaltic pump was started and the whole content of the syringe was transferred into the reservoir of the tube-set via a cell strainer (BD Falcon™ cell strain, 40 μm, BD, Franklin Lakes, N.J. USA). After 7 minutes 1 MBq or 0.5 MBq (15 mL or 7.5 mL) of the compound was added to the reservoir by means of a pipette, thereby mixing the content gently with the tip of the pipette. The blood was left circulating for another 3 minutes. Then, the pump was stopped, aliquots were taken from the blood and the thrombus together with the roughened thread was removed from the thrombus-chamber before both was weighted and measured in a gamma counter (Automatic Gamma Counter Wizard^2 3, Perkin Elmer). Then the thrombus together with the thread was incubated in Plasmin-solution (Plasmin from Human Plasma, Sigma Aldrich, stock-solution: 500 μg in 500 μL 150 μM Tris-buffer (pH 7.8), 20 μL stock-solution to 230 μL saline solution 0.9%) for 48 hours to separate the platelets from the thread and to determine the netto weight of the thrombus. Finally the activity of the compound in blood and thrombus as well as the ratio between both was determined (cpm/weight [mg]).
To verify the specificity of the compound, a competition experiment was conducted in which the cold compound was added to the reservoir together with the hot compound. The final plasma concentration of the cold compound was 2.8 μM.

The nature of data set [1]: Blood clearance in a cynomolgus monkey (PET and gamma counter). It is filed as in vivo. As to the method: Blood kinetics of the compound described in example 40 in cynomolgus monkey. PET-imaging was performed continuously from shortly before up to 60 minutes post injection. Venous blood samples were taken at 3, 10, 30 and 60 minutes p.i. and were measured in a gamma-counter (Automatic Gamma Counter Wizard^2 3, Perkin Elmer) and expressed as cpm/mg blood. Additionally, the blood-concentration of the compound was measured from the PET-Image over the whole imaging period and expressed as % ID/g.
The blood clearance of the compound described in example 40 has been determined in a cynomolgus monkey. A female cynomolgus monkey was anesthetized with a mixture of Xylazin (Rompun®, Bayer HealthCare, Leverkusen, Germany), 0.12 mL/kg bodyweight and Ketamine (Ketavet®, Pfizer) 0.12 mL/kg bodyweight i.m. The monkey was placed inside the PET-scanner (Inveon PET/CT, Siemens Medical, Erlangen) and 25 MBq of the compound has been injected i.v. while PET-imaging was performed continuously from shortly before up to 60 minutes post injection. Venous blood samples were taken at 3, 10, 30 and 60 minutes p.i. and were measured in a gamma-counter (Automatic Gamma Counter Wizard^2 3, Perkin Elmer). Additionally, the blood-concentration of the compound was measured from the PET-Image over the whole imaging period (FIG. 4).

Data set [2] has as its system arterial and venous thrombi. Description: Thrombus PET imaging and in vivo clot-to-blood ratio in cynomolgus monkeys. On the set-up: species or system cynomolgus monkey. On the procedure: The ability of the compound described in example 40 for the imaging of thrombi was investigated in a PET-study with cynomolgus monkeys (female, 2.8-3.2 kg).
The first monkey was anesthetized with a mixture of Xylazin (Rompun®, Bayer HealthCare, Leverkusen, Germany), 0.12 mL/Kg and Ketamine (Ketavet®, Pfizer) 0.12 mL/Kg b.w. i.m. and additionally analgesized by an i.m. injection of 6 μg Buprenorphine per kg. While the investigation, small amounts of Ketamine have been injected i.m. if required. The left common carotid artery was exposed surgically and a polyethylene-tube ([…] Polyethylene Tubing, Clay Adams, PE50), which was roughened previously by sandpaper (600—CAMI Grit designation), was inserted into the vessel, advanced into the descending aorta and was left there for 30 minutes to allow for the development of a thrombus on the rough surface of the tube. Meanwhile, the monkey was placed inside the PET-scanner (Inveon PET/CT, Siemens Medical, Erlangen). […] The thickness of this layer was far below 1 mm (see also removed thrombus of Monkey 2, FIG. 7) and therewith also far below the resolution of the image, which is approximately 1 mm. This also means, that even slightest thrombi, even if their size is far less than the resolution of the imaging-device, can be visualized due to the massive accumulation of compound on the platelets of the thrombi. At the end of the experiment the tube was removed carefully from the vessel before it was weighted and measured in a gamma counter (Automatic Gamma Counter Wizard^2 3, Perkin Elmer). Then the thrombus together with the tube was incubated in Plasmin-solution (Plasmin from Human Plasma, Sigma Aldrich, Plasmin-stock-solution: 500 μg Plasmin in 500 μL Tris-buffer (150 μM, pH 7.8), 20 μL Plasmin-stock-solution to 230 μL saline solution 0.9%) for 48 hours to separate the platelets from the tube and to determine the netto weight of the thrombus. Finally the activity of the compound in blood and thrombus as well as the ratio between the two was determined (cpm/weight [mg]).
The experiment was repeated with the same compound in another monkey with a slightly different preparation of the thrombogenic tube: This tube was roughened at only two short sections with a gap in between. Apart from that, the experimental design including the determination of the in vivo clot-to-blood ratio was as described above for monkey 1.
The experiment was repeated with the same compound in another monkey, but with the reduced dose of 15 MBq for the whole animal. In addition to the arterial catheter, this animal also received a venous catheter, also made of PE50-catheter-tube and roughened at some parts with gaps in between as described above. […]
The in vivo clot-to-blood ratio was determined from 5 thrombi out of the above described monkey experiments. As already mentioned above the thrombi had been removed from the vessels after imaging and had been weighted and measured in a gamma-counter (Automatic Gamma Counter Wizard^2 3, Perkin Elmer) together with blood samples taken from the animal. After incubation of the thrombi in Plasmin (Plasmin from Human Plasma, Sigma Aldrich, Plasmin-stock-solution: 500 μg Plasmin in 500 μL Tris-buffer (150 μM, pH 7.8), 20 μL Plasmin-stock-solution to 230 μL saline solution 0.9%) and removal of the thrombi from the catheter tubes, the netto weight of the thrombi was calculated and the concentration of the compound in thrombus (clot) and blood, as well as the ratio between the two was calculated.

For the molecule `O=C(O)C[C@H](NC(=O)[C@@H]1CCCN(C(=O)CCC2CCNCC2)C1)c1cncc(OCC[18F])c1` [Example 40, (3S)-3-[5-(2-[^18F]Fluoroethoxy)pyridin-3-yl]-3-[({(3R)-1-[3-(piperidin-4-yl)propanoyl]piperidin-3-yl}carbonyl)amino]propanoic acid], in the data set on human thrombi (3 minutes post-injection of 18F-labeled compound), the “in vitro clot-to-blood ratio” value was 71 ± 4 (n = 3). Besides, in the data set on human thrombi (3 minutes post-injection of 18F-labeled compound, without cold compound), the “Accumulation Thrombus” value was 202 ± 11 (n = 3) 10^3 cpm/mg. Also, the Thrombus competition in the data set with human thrombi (cold compound added with hot compound, final plasma concentration 2.8 μM, 3 minutes) was 8 ± 1 (n = 3) 10^3 cpm/mg. For the same molecule, in data set [1] (25 MBq i.v., up to 60 minutes p.i.), the blood clearance entry is on record as “rapidly cleared from the blood; also recorded: rapidly eliminated from the blood”. Further, in data set [1] (PET), the “contrast in the brain” value is on record as “completely free of contrast” and the “signal in other tissue” value is “only marginal signal visible in any other tissue”. In addition, the “retention within the thrombus” value in data set [2] (60 minutes were shown) was “almost completely remains within the thrombus”. Further, in data set [2] (blood sample of the animal, Cynomolgus monkey), the Blood was 90 cpm/mg and 130 cpm/mg and 100 cpm/mg. Moreover, the “Clot/Blood mean (in vivo clot-to-blood ratio)” value in data set [2] (mean of 5 thrombi, sd 52) was 126+/−52 and 126. In data set [2] (monkeys, PET), the “background in surrounding tissue or organ” value was “almost no background in any surrounding tissue or organ”. In addition, in data set [2] (monkeys, PET, 15-25 MBq i.v.), the “accumulation in venous and arterial thrombi” value is “surprisingly high accumulation”.
